# According to ChEMBL document CHEMBL1201862, “PubChem BioAssay data set” (2004):
# Active and inactive are the calls of the source.
# Columns and labels:
# H9c2 = assay: cells; format: functional, cell-based; conditions: Rattus norvegicus, H9c2, Myocardium;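 further: confirmatory concentration-response retest of ultra-high-throughput screening hits for modulation of myocardial damage; cell death induced by hydrogen peroxide oxidative stress; compound pretreatment for 60 min then peroxide exposure for 2 h; potency is for protecting the cells against peroxide damage rather than for killing them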
# [1] = target: Potassium voltage-gated channel subfamily KQT member 2 (Rattus norvegicus, UniProt O88943); assay: blockers of KCNQ2 channel current – cell-based, automated electrophysiology, set II, rat KCNQ2, dose response (AID 588637); format: functional
# [2] = viability of uninfected HEp-2 cells – cell-based, HTS, cytotoxicity control for RSV inhibitor project, dose response (AID 2410); format: functional; conditions: human respiratory syncytial virus
# CHO-K1 = assay: Counterscreen for antagonists of the orexin 1 receptor (OX1R; HCRTR1): Homogeneous time resolved fluorescence (HTRF)-based cell-based dose response assay to identify antagonists of the parental CHO-K1 cell line. [Related pubchem assays (depositor defined):AID434989, AID435008, AID463079, AID485270, AID492963, AID492964, AID492965, AID493232, AID504699, AID504701]; format: functional; conditions: Cricetulus griseus;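 further: potency for inhibition of ATP-stimulated IP1 production as antagonists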
# [3] = target: T1, Orexin/Hypocretin receptor type 1 (Homo sapiens, UniProt O43613); assay: Fluorescence-based cell-based high throughput dose response assay for antagonists of the orexin 1 receptor (OX1R; HCRTR1). [Related pubchem assays (depositor defined):AID434989, AID435008, AID463079, AID485270, AID492963, AID492964, AID492965, AID493232, AID504717, AID504718]; format: functional
# T1 sequence (O43613 whole entry): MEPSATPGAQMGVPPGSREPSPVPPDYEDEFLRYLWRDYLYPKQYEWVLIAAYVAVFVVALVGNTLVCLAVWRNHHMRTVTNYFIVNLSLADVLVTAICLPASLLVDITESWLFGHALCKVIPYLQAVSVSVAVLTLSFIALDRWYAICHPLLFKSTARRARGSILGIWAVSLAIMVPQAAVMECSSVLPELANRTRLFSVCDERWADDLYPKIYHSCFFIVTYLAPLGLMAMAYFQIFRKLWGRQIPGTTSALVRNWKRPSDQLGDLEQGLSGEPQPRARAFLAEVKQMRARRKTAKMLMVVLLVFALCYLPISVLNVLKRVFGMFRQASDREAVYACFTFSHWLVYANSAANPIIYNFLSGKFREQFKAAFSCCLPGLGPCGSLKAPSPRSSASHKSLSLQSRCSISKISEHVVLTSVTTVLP
# [4] = Counterscreen for antagonists of the orexin 1 receptor (OX1R; HCRTR1): Fluorescence-based cell-based high throughput dose response assay to identify antagonists of the parental CHO cell line. [Related pubchem assays (depositor defined):AID434989, AID435008, AID463079, AID485270, AID492963, AID492964, AID492965, AID493232, AID504699, AID504701]; format: functional
# [5] = target: T1, Orexin/Hypocretin receptor type 1; assay: Homogeneous Time Resolved Fluorescence (HTRF)-based cell-based high throughput dose response assay for antagonists of the orexin 1 receptor (OX1R; HCRTR1). [Related pubchem assays (depositor defined):AID434989, AID435008, AID463079, AID485270, AID492963, AID492964, AID492965, AID493232, AID504717, AID504718]; format: functional
# Orexin receptor type 2 [6] = target: T2, Orexin receptor type 2 (Homo sapiens, UniProt O43614); assay: Counterscreen assay for antagonists of the orexin 1 receptor (OX1R; HCRTR1): Homogeneous Time Resolved Fluorescence (HTRF)-based cell-based dose response assay for antagonists of the orexin 2 receptor (OX2R; HCRTR2), run by assay provider.; format: functional
# T2 sequence (O43614 whole entry): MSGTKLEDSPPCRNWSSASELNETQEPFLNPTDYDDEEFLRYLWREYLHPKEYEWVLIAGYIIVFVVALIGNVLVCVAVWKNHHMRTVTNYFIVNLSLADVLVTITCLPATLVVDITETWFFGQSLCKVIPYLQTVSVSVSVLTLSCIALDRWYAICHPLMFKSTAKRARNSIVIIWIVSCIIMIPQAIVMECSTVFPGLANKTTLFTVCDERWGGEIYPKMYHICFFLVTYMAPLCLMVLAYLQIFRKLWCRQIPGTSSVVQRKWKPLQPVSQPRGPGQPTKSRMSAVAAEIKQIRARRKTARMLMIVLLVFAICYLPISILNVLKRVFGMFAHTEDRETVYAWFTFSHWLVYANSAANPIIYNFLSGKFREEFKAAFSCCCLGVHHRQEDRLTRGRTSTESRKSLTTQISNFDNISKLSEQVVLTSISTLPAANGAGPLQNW
# Orexin receptor type 2 [7] = target: T2, Orexin receptor type 2; assay: Counterscreen assay for antagonists of the orexin 1 receptor (OX1R; HCRTR1): Fluorescence-based cell-based dose response assay for antagonists of the orexin 2 receptor (OX2R; HCRTR2), run by assay provider.; format: functional
# [8] = target: T3, High affinity choline transporter 1 (Homo sapiens, UniProt Q9GZV3); assay: human choline transporter blockers, potency – cell-based, 5-point CRC, membrane potential dye, dose response (AID 504840); format: functional
# T3 sequence (Q9GZV3 whole entry): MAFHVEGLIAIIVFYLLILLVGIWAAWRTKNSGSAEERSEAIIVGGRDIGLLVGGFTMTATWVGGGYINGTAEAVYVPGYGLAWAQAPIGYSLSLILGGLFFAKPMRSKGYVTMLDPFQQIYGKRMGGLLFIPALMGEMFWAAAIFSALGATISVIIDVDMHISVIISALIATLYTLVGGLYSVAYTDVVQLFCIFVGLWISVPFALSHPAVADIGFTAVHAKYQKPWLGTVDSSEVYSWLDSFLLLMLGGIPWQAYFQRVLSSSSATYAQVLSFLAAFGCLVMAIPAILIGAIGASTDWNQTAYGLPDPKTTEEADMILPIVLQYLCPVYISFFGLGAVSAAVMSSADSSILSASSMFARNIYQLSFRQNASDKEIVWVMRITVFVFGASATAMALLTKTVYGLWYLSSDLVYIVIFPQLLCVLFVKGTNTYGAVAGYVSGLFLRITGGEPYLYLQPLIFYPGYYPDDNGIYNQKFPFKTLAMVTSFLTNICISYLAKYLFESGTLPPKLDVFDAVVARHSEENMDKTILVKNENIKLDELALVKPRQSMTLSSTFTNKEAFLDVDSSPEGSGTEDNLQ
# [9] = target: T3, High affinity choline transporter 1; assay: human choline transporter blockers, potency – cell-based, 10-point CRC, membrane potential dye, dose response (AID 588401); format: functional;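 further: membrane potential dye fluorescence of choline-evoked depolarization via CHT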
# [10] = target: FAD-linked sulfhydryl oxidase ALR (Homo sapiens, UniProt P55789); assay: ALR-catalysed DTT oxidation blockers – biochemical, H2O2 detection, luminescence, cherry-pick, dose response (AID 493248)
# Streptokinase A = target: T4, Streptokinase A (Streptococcus pyogenes serotype M1, UniProt P10520); assay: viability-normalized secreted streptokinase activity reduction – plasminogen activation absorbance, OD405, dose response (AID 1914); format: functional, Streptococcus pyogenes M1 GAS;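 further: secreted streptokinase activity via plasminogen activation per viability signal from cell pellet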
# T4 sequence (P10520 whole entry): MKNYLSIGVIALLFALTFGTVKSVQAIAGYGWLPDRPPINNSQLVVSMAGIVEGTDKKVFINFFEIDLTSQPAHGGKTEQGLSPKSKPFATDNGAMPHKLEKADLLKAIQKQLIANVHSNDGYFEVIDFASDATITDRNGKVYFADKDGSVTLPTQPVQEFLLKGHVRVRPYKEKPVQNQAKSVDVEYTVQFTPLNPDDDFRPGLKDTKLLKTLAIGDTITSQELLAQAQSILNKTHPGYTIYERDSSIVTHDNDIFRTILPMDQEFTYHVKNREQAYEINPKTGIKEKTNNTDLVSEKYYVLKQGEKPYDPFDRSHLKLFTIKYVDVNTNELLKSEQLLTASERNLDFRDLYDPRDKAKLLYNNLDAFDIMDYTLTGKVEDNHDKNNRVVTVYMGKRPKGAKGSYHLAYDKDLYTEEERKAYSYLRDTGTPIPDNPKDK
# [11] = test system: Streptococcus sp. 'group A'; assay: Streptococcus pyogenes SK(-)GAS viability under kanamycin – luminescence, BacTiterGlo, confirmation, counter-screen for streptokinase expression inhibitor project, dose response (AID 1900); format: functional, organism-based
# Streptococcus = assay: GAS UMAA2166 growth inhibition – luminescence, BacTiterGlo, counter-screen for streptokinase expression inhibitor project, dose response (AID 1915); format: functional, organism-based;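 further: potency for reduction of bacterial viability or growth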
# [12] = target: Adenosylmethionine-8-amino-7-oxononanoate aminotransferase (Mycobacterium tuberculosis, UniProt P9WQ81); assay: Mycobacterium tuberculosis BioA enzyme inhibitor Measured in Biochemical System Using Plate Reader - 2163-02_Inhibitor_Dose_CherryPick_Activity.; format: functional, Mycobacterium tuberculosis UT205
# Protein Wnt-3a = Protein Wnt-3a (Mus musculus, UniProt P27467); assay: antagonism of Wnt3a pathway luciferase reporter – Wnt-LIGHT cells, luminescence, selectivity assay for Gli-SUFU antagonist project, dose response (AID 651570); format: functional; conditions: read-out: IC50_Mean;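 further: Wnt-LIGHT reporter cells stimulated with conditioned medium from Wnt3a-producing cells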
# [13] = loss of viability in HepG2 cells – cell-based, CellTiter-Glo, cherry-picked, cytotoxicity control for Shn3 inhibitor project, dose response (AID 624134); format: functional
# [14] = non-specific 3'UTR reporter inhibition in Clone20-Shn3RL – cell-based, Renilla luciferase, cherry-picked, counter-screen for Shn3 inhibitor project, dose response (AID 624133); format: functional
# [15] = reduction of Shn3 3'UTR-driven luciferase in osteoblasts – cell-based, Clone20 osteoblasts, firefly luciferase, cherry-picked, dose response (AID 624132); format: functional;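 further: firefly luciferase luminescence from reporter carrying the Shn3 3'UTR in osteoblasts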
# [16] = target: T5, Apoptotic protease-activating factor 1 (Homo sapiens, UniProt O14727); assay: SAR analysis of small molecule Activators of Apaf-1 in a Fluorescent assay.; format: functional; conditions: read-out: EC50_Mean;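 further: caspase-3 cleavage of fluorogenic Rh110 DEVD substrate downstream of apoptosome activation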
# T5 sequence (O14727 whole entry): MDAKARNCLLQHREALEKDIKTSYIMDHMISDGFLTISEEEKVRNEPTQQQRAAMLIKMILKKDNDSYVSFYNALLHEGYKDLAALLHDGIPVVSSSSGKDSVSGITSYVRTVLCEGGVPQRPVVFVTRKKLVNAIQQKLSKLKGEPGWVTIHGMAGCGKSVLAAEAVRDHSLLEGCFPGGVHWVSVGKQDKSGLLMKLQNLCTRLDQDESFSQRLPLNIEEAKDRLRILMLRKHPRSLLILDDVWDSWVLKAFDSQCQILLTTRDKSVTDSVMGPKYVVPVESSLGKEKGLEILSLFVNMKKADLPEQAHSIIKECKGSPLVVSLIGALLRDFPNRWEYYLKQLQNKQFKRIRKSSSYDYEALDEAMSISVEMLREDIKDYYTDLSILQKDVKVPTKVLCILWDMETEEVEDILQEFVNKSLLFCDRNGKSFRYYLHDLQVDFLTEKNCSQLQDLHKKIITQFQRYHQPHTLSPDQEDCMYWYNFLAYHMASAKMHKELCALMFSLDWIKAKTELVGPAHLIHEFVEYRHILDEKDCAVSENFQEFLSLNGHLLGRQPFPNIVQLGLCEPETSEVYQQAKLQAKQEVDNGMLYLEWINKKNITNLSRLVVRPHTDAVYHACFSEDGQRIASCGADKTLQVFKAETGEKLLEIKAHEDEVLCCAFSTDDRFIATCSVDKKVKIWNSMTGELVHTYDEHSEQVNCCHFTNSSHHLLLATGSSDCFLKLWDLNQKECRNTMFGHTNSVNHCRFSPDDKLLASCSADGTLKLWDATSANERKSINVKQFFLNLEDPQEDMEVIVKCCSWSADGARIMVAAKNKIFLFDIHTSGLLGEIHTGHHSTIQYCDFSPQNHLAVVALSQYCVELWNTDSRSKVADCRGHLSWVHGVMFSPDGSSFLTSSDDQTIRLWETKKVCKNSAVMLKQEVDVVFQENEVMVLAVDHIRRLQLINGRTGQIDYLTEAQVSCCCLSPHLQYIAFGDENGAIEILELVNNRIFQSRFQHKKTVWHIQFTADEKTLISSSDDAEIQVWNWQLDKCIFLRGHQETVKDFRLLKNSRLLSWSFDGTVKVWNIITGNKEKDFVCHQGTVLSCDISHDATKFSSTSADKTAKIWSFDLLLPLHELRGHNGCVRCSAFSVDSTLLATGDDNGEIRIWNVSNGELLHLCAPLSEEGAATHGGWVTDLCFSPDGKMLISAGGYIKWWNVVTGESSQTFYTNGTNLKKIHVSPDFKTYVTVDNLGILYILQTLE
# Chain of Protein Wnt-3a (P27467 whole entry): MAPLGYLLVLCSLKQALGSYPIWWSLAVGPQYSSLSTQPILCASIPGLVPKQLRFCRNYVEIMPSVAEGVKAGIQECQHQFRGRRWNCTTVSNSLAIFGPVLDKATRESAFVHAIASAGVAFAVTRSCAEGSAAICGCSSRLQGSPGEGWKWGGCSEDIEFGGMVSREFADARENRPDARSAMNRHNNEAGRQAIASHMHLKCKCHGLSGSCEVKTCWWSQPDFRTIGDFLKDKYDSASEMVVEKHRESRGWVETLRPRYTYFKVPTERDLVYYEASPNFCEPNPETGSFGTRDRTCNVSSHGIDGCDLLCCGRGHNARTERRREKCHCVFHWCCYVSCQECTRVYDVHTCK
# Chain of FAD-linked sulfhydryl oxidase ALR (P55789 whole entry): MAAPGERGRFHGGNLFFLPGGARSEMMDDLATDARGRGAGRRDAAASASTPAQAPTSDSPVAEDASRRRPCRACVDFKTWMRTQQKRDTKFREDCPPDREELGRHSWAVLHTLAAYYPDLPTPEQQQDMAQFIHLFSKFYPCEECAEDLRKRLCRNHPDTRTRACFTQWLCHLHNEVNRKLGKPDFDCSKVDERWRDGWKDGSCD
# Chain of Potassium voltage-gated channel subfamily KQT member 2 (O88943 whole entry): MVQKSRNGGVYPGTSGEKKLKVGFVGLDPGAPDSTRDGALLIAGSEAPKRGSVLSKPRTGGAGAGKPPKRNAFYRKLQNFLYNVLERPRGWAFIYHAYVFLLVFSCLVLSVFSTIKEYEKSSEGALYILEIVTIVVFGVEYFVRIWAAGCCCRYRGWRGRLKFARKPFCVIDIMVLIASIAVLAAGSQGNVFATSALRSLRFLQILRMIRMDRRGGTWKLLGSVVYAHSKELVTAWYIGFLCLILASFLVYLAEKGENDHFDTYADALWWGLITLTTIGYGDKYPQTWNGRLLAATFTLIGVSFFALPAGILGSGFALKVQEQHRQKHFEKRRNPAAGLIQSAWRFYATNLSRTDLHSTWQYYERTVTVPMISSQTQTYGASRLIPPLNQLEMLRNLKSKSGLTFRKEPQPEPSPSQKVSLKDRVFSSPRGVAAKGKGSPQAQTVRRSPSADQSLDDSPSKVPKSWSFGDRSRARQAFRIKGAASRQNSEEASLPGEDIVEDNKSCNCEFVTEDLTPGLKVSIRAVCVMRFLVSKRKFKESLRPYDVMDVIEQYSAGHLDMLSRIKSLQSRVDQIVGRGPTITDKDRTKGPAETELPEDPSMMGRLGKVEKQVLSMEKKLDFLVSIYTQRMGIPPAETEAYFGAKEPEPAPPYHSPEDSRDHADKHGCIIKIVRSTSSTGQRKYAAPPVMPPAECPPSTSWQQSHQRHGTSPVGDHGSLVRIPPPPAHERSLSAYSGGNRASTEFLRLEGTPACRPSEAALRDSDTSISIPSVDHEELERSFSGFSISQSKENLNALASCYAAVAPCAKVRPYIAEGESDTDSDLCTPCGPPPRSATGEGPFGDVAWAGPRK
# Chain of Adenosylmethionine-8-amino-7-oxononanoate aminotransferase (P9WQ81 whole entry): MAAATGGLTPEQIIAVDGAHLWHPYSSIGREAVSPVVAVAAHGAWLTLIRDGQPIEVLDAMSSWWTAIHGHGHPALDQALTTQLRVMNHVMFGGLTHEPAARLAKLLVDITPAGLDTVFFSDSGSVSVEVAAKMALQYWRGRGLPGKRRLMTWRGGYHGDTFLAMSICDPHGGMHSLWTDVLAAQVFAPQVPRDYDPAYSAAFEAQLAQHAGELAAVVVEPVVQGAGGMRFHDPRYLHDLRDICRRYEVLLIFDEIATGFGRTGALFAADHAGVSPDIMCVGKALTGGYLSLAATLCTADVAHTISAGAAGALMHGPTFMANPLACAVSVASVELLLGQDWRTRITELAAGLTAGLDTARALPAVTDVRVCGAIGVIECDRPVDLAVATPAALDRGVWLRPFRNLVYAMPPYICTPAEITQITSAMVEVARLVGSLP
smiles,measurement,setting,value
CCC(CC)C(=O)N(CCc1ccc(OC)cc1)Cc1nc(O)c2ccccc2n1,IC50,H9c2,> 79 µM (inactive)
same,IC50,[1],12.4 µM (active)
O=C(NC(Cc1c[nH]c2ccccc12)C(=O)N/N=C/c1ccc(Cl)cc1)c1cccs1 (stereo unspecified),CC50,[2],14.7 µM (active)
same,IC50,CHO-K1,> 66.2 µM (inactive)
same,IC50,[3],8.68 µM (active)
same,IC50,[4],> 49.8 µM (inactive)
same,IC50,[5],3.28 µM (active)
same,IC50,cells,10.9 µM (active)
same,IC50,Orexin receptor type 2 [6],> 50 µM (inactive)
same,IC50,Orexin receptor type 2 [7],24 µM (inactive)
Cc1ccc(C(C)N=C(S)NC2CCCCC2)cc1C (stereo unspecified),IC50,[8],8 µM (active)
same,IC50,[9],3.36 µM (active)
N#C/C(=N\Nc1ccc(Cl)cc1)C(N)=S,IC50,[8],5.01 µM (active)
same,AC50,[10],7.86 µM (active)
same,IC50,[9],2.04 µM (active)
same,EC50,Streptokinase A,> 150 µM (not active)
same,EC50,[11],> 150 µM (not active)
same,EC50,Streptococcus,> 150 µM (not active)
Cc1c2cnn(CC(=O)NCc3ccccn3)c(=O)c2c(C)n1Cc1ccc(Cl)cc1,AC50,[12],2.49 µM (active)
Cc1nn(-c2ccccc2)c2nc(N)c(C#N)c(-c3ccc(O)c(O)c3)c12,CC50,[2],17.4 µM (active)
same,IC50,CHO-K1,> 66.2 µM (inactive)
same,IC50,[3],> 5.53 µM (active)
same,IC50,[4],36.2 µM (inactive)
same,IC50,[5],9.34 µM (active)
same,IC50,Orexin receptor type 2 [6],> 50 µM (inactive)
same,IC50,Orexin receptor type 2 [7],> 88.8 µM (inactive)
C[C@@H]1COC(=O)[C@@H](NC(=O)OCC2c3ccccc3-c3ccccc32)C/C=C\C[C@@H](CC(=O)N(CCO)Cc2ccccc2)C(=O)N1,IC50,Protein Wnt-3a,3.34 µM (active)
same,AC50,[13],> 70 µM (inactive)
same,AC50,[14],3.59 µM (active)
same,AC50,[15],1.89 µM (active)
CC(=O)c1ccc(N2C(=O)CC3(CC(c4ccc(Cl)cc4)=NO3)C2=O)cc1 (stereo unspecified),EC50,[16],> 100 µM (inactive)
